Reference: patent US20040117125A1, “Drug discovery method and apparatus” (priority 1999, published 2004)

What was measured:
GABA-A = test: Fluridone/bicuculline in vivo GABA-A agonism/antagonism assay; details: mice, bicuculline 5 mg/kg alone
MPTP-treated monkeys = details: combined with L-Dopa or selective dopamine agonists (D1 or D2); cited from earlier work

| SMILES | seizures (GABA-A) | Death rate (GABA-A; within ten to twenty second after injection) [%] | dyskinesia (MPTP-treated monkeys) |
| --- | --- | --- | --- |
| CN1CCc2cc3c(cc2[C@H]1[C@@H]1OC(=O)c2c1ccc1c2OCO1)OCO3 [bicuculline] | induced immediate seizures | 100 |  |
| CCn1c(=O)c2c(nc(/C=C/c3ccc(OC)c(OC)c3)n2C)n(CC)c1=O [KW-6002] |  |  | does not induce dyskinesia |
